“And” between values parts separate entries of the source, which are not always exact repeats. Identical values can stand only once.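 Results reflect a 48-hour exposure of cells in 96-well plates to compound at five concentrations. GI50 = concentration required for 50% inhibition of growth. TGI denotes the concentration required for complete inhibition of growth.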
How the values were obtained:
Test in all cases: NCI anticancer screen, dose series, 48 h
[1] = system: NCI-H226 lung
[2] = system: U251 CNS
[3] = system: UO-31 renal
[4] = system: DU-145 prostate
[5] = system: NCI/ADR-RES ovarian
[6] = system: SF-539 CNS
[7] = system: HOP-62 NSCLC
[8] = system: TK-10 renal
[9] = system: K-562 leukemia
[10] = system: HCT-15 colon

Row | Structure (SMILES) | GI50 [1] | TGI [1] | GI50 [2] | TGI [2] | GI50 [3] | TGI [3] | GI50 [4] | TGI [4] | GI50 [5] | TGI [5] | GI50 [6] | TGI [6] | GI50 [7] | TGI [7] | GI50 [8] | TGI [8] | GI50 [9] | TGI [9] | GI50 [10] | TGI [10]
1 | C(#Cc1ccccc1C#Cc1ccccn1)c1ccccn1 | 16.6 µM | 37.9 µM | 11.5 µM | 25.3 µM | 16.4 µM | 35.3 µM | 19.8 µM | 38 µM | 5.45 µM | 29.4 µM | 21.3 µM | 40.2 µM | 25.6 µM | > 100 µM | 6.54 µM | 22.3 µM | 7.02 µM | 27.1 µM | 11.2 µM | 25 µM
2 | CCC1OC(/C(C)=C/C(C)/C=C/C2C(C)C2/C=C/C2OC(CC(=O)O)CC(O)C2O)CC=C1C (configuration not stated) | > 50 µM | > 50 µM | > 50 µM | > 50 µM | > 50 µM | > 50 µM | > 50 µM | > 50 µM | 14.4 µM | > 50 µM | > 50 µM | > 50 µM | > 50 µM | > 50 µM | 9.6 µM | > 50 µM | > 50 µM | > 50 µM | > 50 µM | > 50 µM
3 | CC(C)(O)CCC(O)C(C)(O)C1CCC2(O)C3=CC(=O)C4(O)CC(O)C(O)CC4(C)C3CCC12C (configuration not stated) (tested in a mixture with another compound) | – | > 100 µM | – | > 100 µM | – | > 100 µM | – | > 100 µM | – | > 100 µM | – | > 100 µM | – | > 100 µM | – | > 100 µM | – | > 100 µM | – | > 100 µM
4 | CC(C)(F)C[C@H](N[C@@H](c1ccc(-c2ccc(S(C)(=O)=O)cc2)cc1)C(F)(F)F)C(=O)NC1(C#N)CC1 | 16.4 µM and 23.6 µM | 55 µM and 63.6 µM | 17.9 µM and 30.3 µM | 55 µM and > 100 µM | 49.3 µM and 23.2 µM | 55 µM and > 100 µM | 47.6 µM and 44.4 µM | 55 µM and > 100 µM | 34.1 µM | 55 µM | 11.8 µM and 23.1 µM | 31.8 µM and 53.2 µM | 12.2 µM and 22.6 µM | 40.7 µM and 53.5 µM | > 55 µM and 31.1 µM | > 55 µM and 81.2 µM | > 100 µM | > 100 µM | > 100 µM | > 100 µM
5 | S=c1[nH]nc(SCc2ccccc2Cl)c2[nH]cnc12 | – | > 100 µM | – | > 100 µM | – | > 100 µM | – | > 100 µM | – | > 100 µM | – | > 100 µM | – | > 100 µM | – | > 100 µM | – | > 100 µM | – | > 100 µM
6 | C#CCOc1cccc(Nc2ncc3ncn(C4CCN(C(=O)CCl)C4)c3n2)c1 (configuration not stated) | > 62.5 µM | > 62.5 µM | > 62.5 µM | > 62.5 µM | 37.4 µM | > 62.5 µM | > 62.5 µM | > 62.5 µM | > 62.5 µM | > 62.5 µM | > 62.5 µM | > 62.5 µM | > 62.5 µM | > 62.5 µM | > 62.5 µM | > 62.5 µM | 17.9 µM | > 62.5 µM | > 62.5 µM | > 62.5 µM
7 | C[C@H]1CCC/C=C/[C@@H]2C[C@H](O)C[C@H]2[C@H](O)[C@@H](SC2OC(CO)C(O)C(O)C2O)CC(=O)O1 (some centres not stated) | 36.2 µM | > 100 µM | > 100 µM | > 100 µM | 47.9 µM | > 100 µM | > 100 µM | > 100 µM | 43.3 µM | > 100 µM | 31.9 µM | > 100 µM | 98.9 µM | > 100 µM | > 100 µM | > 100 µM | > 100 µM | > 100 µM | > 100 µM | > 100 µM
8 | Cc1c(N)nc(C(CC(N)=O)NCC(N)C(N)=O)nc1C(=O)NC(C(=O)NC(C)C(O)C(C)C(=O)NC(C(=O)NCCc1nc(-c2nc(C(=O)NCCCNCCCCN)cs2)cs1)C(C)O)C(OC1OC(CO)C(O)C(O)C1OC1OC(CO)C(O)C(OC(N)=O)C1O)c1cnc[nH]1 (configuration not stated) | 9.65 µg/mL and 3.45 µg/mL | – | 8.06 µg/mL | > 10 µM | 2.07 µg/mL and 0.691 µg/mL | 5.71 µg/mL and > 10 µM | 2.17 µg/mL and 11.3 µg/mL | 48 µg/mL | 3.44 µg/mL and 1.4 µg/mL | 17 µg/mL | 0.21 µg/mL and 0.0169 µg/mL | – | 0.137 µg/mL | – | 19.4 µg/mL | > 10 µM | 29.2 µg/mL | > 10 µM | 1.92 µg/mL | > 10 µM
9 | O=C(O)c1ccc2cccnc2c1O | 1.95 µM | > 56 µM | 0.672 µM | > 59.4 µM | 1.14 µM | 8.65 µM | 0.828 µM | 42.3 µM | 1.33 µM | 36.2 µM | 1.19 µM | 12.8 µM | 1.37 µM | 41.6 µM | 1.85 µM | > 100 µM | 0.896 µM | > 100 µM | 0.994 µM | > 100 µM
10 | O=C(Nc1ccccc1C(=O)Nc1nccs1)c1ccccc1 | – | > 100 µM | – | > 100 µM | – | > 100 µM | – | > 100 µM | – | > 100 µM | – | > 100 µM | – | > 100 µM | – | > 100 µM | – | > 100 µM | – | > 100 µM
11 | Cc1[nH]n(-c2ccccc2)c(=O)c1C(=O)c1ccccc1 | > 25 µM | > 25 µM | 16.2 µM | > 25 µM | > 25 µM | > 25 µM | > 25 µM | > 25 µM | > 23.8 µM | > 25 µM | > 25 µM | > 25 µM | > 25 µM | > 25 µM | > 25 µM | > 25 µM | > 21.3 µM | > 25 µM | > 23.9 µM | > 25 µM
12 | COc1cc(/C=C/c2cc(/C=C/c3ccc(O)c(OC)c3)[nH]c(=O)n2)ccc1O | 3.48 µM | 22.5 µM | 3.15 µM | 13.5 µM | 3.71 µM | 58.6 µM | 4.91 µM | 35.4 µM | 16.7 µM | > 100 µM | 3.87 µM | > 100 µM | 4.11 µM | 17.6 µM | 6.13 µM | 36 µM | 3.66 µM | 35.8 µM | 5.43 µM | > 100 µM
13 | O=c1[nH]cnc2nc(-c3ccc(N(CCCl)CCCl)cc3)[nH]c12 | 7.13 µM | 80.6 µM | 20.1 µM | > 100 µM | 10.4 µM | 38.3 µM | 15.9 µM | > 100 µM | 13.1 µM | > 100 µM | 15.1 µM | 63 µM | 10.7 µM | 63.8 µM | 15.4 µM | 48.4 µM | 1.9 µM | > 100 µM | 9.81 µM | > 100 µM
